The subject of assay [1] is Staphilococcus aureus 007. Conditions: 20 h.
The subject of assay [2] is Staphilococcus .aureus A172. The following applies: 20 h.
In assay [3] the test system is Listeria monocytogenes. The following applies: 20 h.
Assay [4] concerns Escherichian coli. Conditions: 20 h.
In assay [5] the test system is Salmonella enterica serovar Paratyphi. Put plainly: Antibacterial activity, MIC100 broth dilution. It counts as cell-based. Conditions: single peptide; MIC100, MH broth, about 10^6 CFU/ml, 37°C 20 h, absorbance 600 nm, triplicate.
For assay [6], the system named is Staphilococcus.aureus A170. The following applies: single peptide; MIC100, MH broth, about 10^6 CFU/ml, 37°C 20 h, absorbance 600 nm, triplicate.

No end group written: not given here.

As to KKYLLPIVGNLLKSLL-NH2 [TB-YK], the MIC in assay [1] was found to be 10 µg/mL; in assay [2] it was 25 µg/mL; in assay [3] it was 10 µg/mL; in assay [4], 20 µg/mL; in assay [5] it was 20 µg/mL; in assay [6] it was 20 µg/mL.

By MIC is commonly meant the lowest concentration found to suppress growth. Higher therefore signals a less susceptible organism.

These data come from paper PMC2747021, “Synergistic Antibacterial and Anti-Inflammatory Activity of Temporin A and Modified Temporin B In Vivo” (PLoS ONE, 2009).
